Measurements as given in the supplement of paper PMC10307832.

How the values were obtained:
Test in all cases: relative viability (nuclei count vs DMSO), 5 days (fraction); higher = more cells survive
[1] = compound: Cc1ccc(F)c(NC(=O)Nc2ccc(-c3cccc4[nH]nc(N)c34)cc2)c1 [Linifanib] + CC1(C)CCC(c2ccc(Cl)cc2)=C(CN2CCN(c3ccc(C(=O)NS(=O)(=O)c4ccc(N[C@H](CCN5CCOCC5)CSc5ccccc5)c(S(=O)(=O)C(F)(F)F)c4)cc3)CC2)C1 [Navitoclax] (partner 0.5 µM)
Outline: (§1)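 A single step with final 0.05% Triton X-100, 1% formaldehyde and 1 ug/ml Hoechst fixed the cells and stained nuclei 5 days after treatment. Lung cancer cell lines in 1536-well plates had been treated by pin tool the day after seeding with one drug alone or a fixed anchor-drug dose plus five library-drug doses (not always all listed) in √10 steps, and nuclei were counted on 4× images. Relative viability is the ratio of nuclei in treated wells to nuclei in vehicle wells, taken as the median of duplicate plates.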

[2] = compound: Cc1ccc(F)c(NC(=O)Nc2ccc(-c3cccc4[nH]nc(N)c34)cc2)c1 [Linifanib] + CCNC(=O)c1noc(-c2cc(C(C)C)c(O)cc2O)c1-c1ccc(CN2CCOCC2)cc1 [Luminespib] (partner 0.01 µM)
Outline: as §1

[3] = compound: Cc1ccc(F)c(NC(=O)Nc2ccc(-c3cccc4[nH]nc(N)c34)cc2)c1 [Linifanib] + C[C@@H](Oc1cc(-c2cnn(C3CCNCC3)c2)cnc1N)c1c(Cl)ccc(F)c1Cl [Crizotinib] (partner 1 µM)
Outline: as §1

Cell Line	relative viability ([1]; first compound 0.03162 µM)	relative viability ([1]; first compound 0.1 µM)	relative viability ([1]; first compound 0.3162 µM)	relative viability ([2]; first compound 0.03162 µM)	relative viability ([2]; first compound 0.1 µM)	relative viability ([2]; first compound 0.3162 µM)	relative viability ([3]; first compound 0.03162 µM)	relative viability ([3]; first compound 0.1 µM)	relative viability ([3]; first compound 0.3162 µM)
PC-14	0.975	0.91	0.947	0.201	0.197	0.147	0.919	1	0.793
NCI-H2228	0.994	1.01	0.8	0.15	0.155	0.17	0.496	0.508	0.453
HCC-44	1.05	0.956	0.942	0.903	0.954	1.05	0.839	0.831	0.733
NCI-H727	0.407	0.402	0.415	0.312	0.292	0.358	1.01	1.01	0.725
NCI-H520	1.02	1.1	1.05	0.171	0.204	0.226	0.799	1.09	0.757
NCI-H2347	0.826	1.01	0.733	0.479	0.408	0.348	0.727	0.7	0.812
NCI-H647	1.23	1.03	1.01	0.149	0.325	0.114	0.963	1.12	0.857
NCI-H2342				0.736	0.766	0.613			
LXF-289	0.936	0.953	0.883	0.766	0.866	0.674	0.887	0.855	0.742
SW 900				0.168	0.172	0.153			
COR-L23	1.05	1.04	0.857	0.673	0.892	0.705	0.716	0.657	0.531
NCI-H1915	0.78	0.821	0.788	0.826	0.804	0.679	0.9	0.923	0.838
NCI-H1437	1.1	1.12	1.07	1.12	1.17	1.04	1.05	0.849	0.888
CAL-12T	1.18	1.21	1.04	0.438	0.751	0.364	0.835	0.692	0.698
NCI-H1651	0.91	1.24	0.999	0.945	0.748	0.797	0.834	0.929	0.831
NCI-H1792	0.692	0.621	0.639	0.331	0.353	0.464	0.941	1.06	0.984
COR-L 105	0.808	0.938	0.796	0.807	0.889	0.556	0.796	0.941	0.797
NCI-H596	1.12	1.04	0.882	1.02	1.1	1.17	0.913	0.902	1.05
NCI-H2170	0.557	0.616	0.448	0.686	0.844	0.741	1.33	1.35	1.11
SK-LU-1	0.783	0.893	0.791	0.195	0.181	0.227	1.03	0.958	0.864
NCI-H650				0.816	0.611	0.71	0.742	0.665	0.73
LOU-NH91	0.656	0.753	0.594	0.394	0.324	0.319	0.74	0.767	0.769
LK-2	0.791	1.03	0.704	0.189	0.201	0.232	0.216	0.195	0.219
LC-2-ad	0.48	0.553	0.429	0.968	0.958	1.05	0.588	0.404	0.381

Cell Line	relative viability ([1]; first compound 0.03162 µM)	relative viability ([1]; first compound 0.1 µM)	relative viability ([1]; first compound 0.3162 µM)	relative viability ([2]; first compound 0.03162 µM)	relative viability ([2]; first compound 0.1 µM)	relative viability ([2]; first compound 0.3162 µM)	relative viability ([3]; first compound 0.03162 µM)	relative viability ([3]; first compound 0.1 µM)	relative viability ([3]; first compound 0.3162 µM)
NCI-H2085	1.04	1.12	1.11	0.4	0.481	0.384	0.863	1.03	0.818
H3255	0.557	0.642	0.562	0.85	0.94	0.976	0.865	0.892	0.85
UMC-11	0.304	0.41	0.366	0.958	1.1	1.08	0.657	0.604	0.598
NCI-H1395	1.19	1.17	1.21	0.684	0.824	0.622			
NCI-H1993	0.806	1.01	0.971	0.864	0.933	1.03	1.01	0.932	0.867
EPLC-272H	1.09	1.09	0.962	0.405	0.392	0.419	0.813	0.913	0.826
NCI-H1975	1.05	1.22	1.08	0.202	0.139	0.251	1	1.02	0.984
NCI-H358				0.366	0.374	0.416	0.502	0.762	0.51
HARA	1.16	1.12	1.05	1.12	0.651	0.707	1.09	1.18	0.975
HOP-62	1	1.07	0.859	0.927	0.964	0.866	0.924	1.04	0.968
PC-3 [JPC-3]	0.878	0.826	0.77	0.744	0.731	0.579	1	1.01	0.986
NCI-H460	1.1	1.45	1	0.0304	0.0311	0.0301	0.95	1.16	0.909
NCI-H1650	0.998	1.35	1.21	0.2	0.188	0.205	0.955	1.17	0.864
ChaGo-K-1	0.991	1.17	0.978	0.636	0.777	0.563	1.13	1.14	1.08
NCI-H23	0.98	0.99	0.61	0.238	0.217	0.225	0.555	0.463	0.506
201T	1.2	1.23	1.21	1.1	1.06	1.03	0.999	1.02	1.04
RERF-LC-KJ	1.12	1.02	0.994	1.3	1.28	1.25	0.833	0.778	0.745
NCI-H1666	0.982	0.948	1.17	1.03	1.04	0.999	0.971	0.989	0.966
ABC-1				0.497	0.558	0.783	1.28	1.27	0.996
EKVX	0.973	1.15	0.868	0.838	0.962	0.854	0.939	1.01	0.875
BEN	0.069	0.203	0.0675	0.276	0.49	0.233	0.897	0.924	0.791
NCI-H322M	1.25	1.14	1.17	0.88	0.863	0.882	0.954	0.982	0.828
SW 1573	1.03	1.28	0.897	0.162	0.26	0.253	0.784	0.91	0.74
HCC-366	1.12	1.11	0.874				0.558	0.69	0.454

Cell Line	relative viability ([1]; first compound 0.03162 µM)	relative viability ([1]; first compound 0.1 µM)	relative viability ([1]; first compound 0.3162 µM)	relative viability ([2]; first compound 0.03162 µM)	relative viability ([2]; first compound 0.1 µM)	relative viability ([2]; first compound 0.3162 µM)	relative viability ([3]; first compound 0.03162 µM)	relative viability ([3]; first compound 0.1 µM)	relative viability ([3]; first compound 0.3162 µM)
A-427	1.07	0.986	0.998	0.912	1.09	0.814	0.964	0.983	0.83
NCI-H838	1.19	1.15	1.16	0.373	0.285	0.267	0.847	0.839	0.841
NCI-H1355	0.891	0.953	0.963	0.777	0.672	0.648	1.04	1.02	1.14
NCI-H2126	0.836	0.838	0.816	0.896	0.967	0.91	1.03	1.04	0.975
HCC-827	1.02	1.02	1	0.549	0.669	0.622	0.957	0.957	0.884
NCI-H661				0.922	0.907	0.926	1.12	1.23	0.906
NCI-H1755	0.931	1.06	0.949	0.586	0.599	0.447	0.888	0.957	0.841
HCC-15	0.651	0.776	0.682	0.387	0.278	0.3	0.855	0.86	0.779
NCI-H2009	1.13	1.14	1.13	1.03	1.05	0.965	1.07	1.08	0.526
SK-MES-1	1.18	1.25	1.04	0.79	0.769	0.639	1.01	1.03	0.81
NCI-H2023	0.929	1.07	0.981	0.7	0.925	0.757	0.679	0.774	0.544
NCI-H2405	0.889	0.88	0.754	0.626	0.933	0.741	0.855	0.86	0.85
HCC-78	0.791	0.74	0.792				0.373	0.376	0.319
NCI-H441	0.705	0.637	0.591	0.371	0.297	0.252	0.715	0.855	0.713
LCLC-97TM1	0.436	0.417	0.321	0.721	0.766	0.595	0.43	0.456	0.362
LCLC-103H				0.971	0.973	0.889	1.05	1.2	0.943
NCI-H1944	1.05	1.05	0.98	0.67	0.727	0.733	1.1	1.12	0.997
NCI-H2087	0.959	1.08	0.95	0.175	0.193	0.171	0.602	1.03	0.655
NCI-H1734	0.851	0.808	0.789	0.223	0.216	0.174	0.768	0.834	0.735
EMC-BAC-2	1.19	1.17	1.15	1.2	1.19	1.14	0.837	0.791	0.733
LU99A	0.747	0.775	0.743	0.205	0.246	0.268	0.61	0.57	0.558
NCI-H1793	0.553	0.429	0.444	0.169	0.173	0.199			
NCI-H3122	1.02	1.04	1.01	0.0911	0.0897	0.0958	0.281	0.263	0.261
